No end group written: not given here.
Tests used:
Type in all cases: cell-based
[1] = tested on: Pseudomonas syringae pv syringae; experiment: Antibacterial activity, phytopathogenic bacteria; conditions: same protocol
Protocol: (§1) Pure each strain of bacteria used (E. coli; M. luteus), an isolated […] is suspended in 10 ml of DIFCO PB medium (Poor Broth, Luria Bertani medium free of yeast extract) and incubated at 30° C. overnight with slow stirring.
(§2) The bacteria to be tested are brought to an optical density at 600 nm of 0.001 in fresh culture medium. 10 μl of each fraction is deposited in microtitration plates in the presence of 100 μl of the bacterial suspension. After incubation for 24 hours at 25° C., the growth is evaluated by measuring the absorbance at 600 nm using a microtitration plate reader.
(§3) Using the same protocol but with phytopathogenic bacteria, the following results are obtained: […]

Pseudomonas syringae = experiment: Antibacterial activity, phytopathogenic bacteria; conditions: same protocol
Protocol: as §1, §2, §3

[2] = tested on: Xanthomonas vesicatoria B229RI; experiment: Antibacterial activity, phytopathogenic bacteria; conditions: same protocol
Protocol: as §1, §2, §3

Pseudomonas syr phaseoli = experiment: Antibacterial activity, phytopathogenic bacteria; conditions: same protocol
Protocol: as §1, §2, §3

Xanthomonas phaseolica = experiment: Antibacterial activity, phytopathogenic bacteria; conditions: same protocol
Protocol: as §1, §2, §3

[3] = tested on: Xanthomonas vesicatoria 687.3; experiment: Antibacterial activity, phytopathogenic bacteria; conditions: same protocol
Protocol: as §1, §2, §3

Pseudomonas maculicola = experiment: Antibacterial activity, phytopathogenic bacteria; conditions: same protocol
Protocol: as §1, §2, §3

[4] = tested on: Xanthomonas campestris pv campestris; experiment: Antibacterial activity, phytopathogenic bacteria; conditions: same protocol
Protocol: as §1, §2, §3

Pseudomonas valerianella = experiment: Antibacterial activity, phytopathogenic bacteria; conditions: same protocol
Protocol: as §1, §2, §3

Stemphyllium = experiment: Antifungal activity, phytopathogenic fungi
Protocol: as §1, §2
(§4) Using the same protocol but with phytopathogenic fungi, the following results are obtained: […]

Verticilium toreillis = experiment: Antifungal activity, phytopathogenic fungi
Protocol: as §1, §2, §4

[5] = tested on: Fusarium oxysporum meloni; experiment: Antifungal activity, phytopathogenic fungi
Protocol: as §1, §2, §4

Fusarium oxysporum L = experiment: Antifungal activity, phytopathogenic fungi
Protocol: as §1, §2, §4

Botrytis petuniae = experiment: Antifungal activity, phytopathogenic fungi
Protocol: as §1, §2, §4

Alternaria dauci = experiment: Antifungal activity, phytopathogenic fungi
Protocol: as §1, §2, §4

bovine red blood cells = experiment: Hemolytic test; conditions: synthetic molecule
Protocol: (§5) All of the antibacterial and hemolytic tests are carried out with the synthetic molecule.

porcine red blood cells = experiment: Hemolytic test; conditions: synthetic molecule
Protocol: as §5

Bacillus subtilis = experiment: Antibacterial activity by microspectrophotometry; conditions: Gram +, 24 hours at 25° C., absorbance at 600 nm
Escherichia coli D22 = experiment: Antibacterial activity by microspectrophotometry; conditions: Escherichia coli D22, Gram -; 24 hours at 25° C., absorbance at 600 nm
Protocol: as §1, §2

Escherichia coli D31 = experiment: Antibacterial activity by microspectrophotometry; conditions: Escherichia coli D31, Gram -; 24 hours at 25° C., absorbance at 600 nm
Protocol: as §1, §2

Micrococcus luteus = experiment: Antibacterial activity by microspectrophotometry
Protocol: as §1, §2

Aerococcus viridans = experiment: Antibacterial activity by microspectrophotometry; conditions: Gram +, 24 hours at 25° C., absorbance at 600 nm
[6] = tested on: Clavibacter michiganensis; experiment: Antibacterial activity by microspectrophotometry
Protocol: as §1, §2, §3

Staphylococcus aureus = experiment: Antibacterial activity by microspectrophotometry; conditions: Gram +, 24 hours at 25° C., absorbance at 600 nm
Salmonella typhimurium = experiment: Antibacterial activity by microspectrophotometry; conditions: Gram -, 24 hours at 25° C., absorbance at 600 nm
[7] = medium supplemented with 1 mM CaCl2 and 20 mM KCl

Substance: androctonine (RSVCRQIKICRRRGGCYYLCTNRPY; disulfide (positions not given here)) [peptide from scorpion Androctonus australis hemolymph; 4 cysteine residues in two intramolecular disulfide bridges; tests done with the synthetic molecule]
- MIC [1]: 15 to 22 µM
- MIC (Pseudomonas syringae): 0.5 to 1 µM
- MIC [2]: 1.5 to 3 µM
- MIC (Pseudomonas syr phaseoli): 2 to 4 µM
- MIC (Xanthomonas phaseolica): 1 to 2 µM
- MIC [3]: 1.5 to 3 µM
- MIC (Pseudomonas maculicola): 3 to 6 µM
- MIC [4]: 3 to 6 µM
- MIC (Pseudomonas valerianella): 15 to 22 µM
- MIC with salts (Stemphyllium; [7]): 16 to 32 µM
- MIC without salts (Stemphyllium; without salts): 4 to 8 µM
- MIC with salts (Verticilium toreillis; [7]): > 32 µM
- MIC without salts (Verticilium toreillis; without salts): 2 to 4 µM
- MIC without salts [5]: 2 to 4 µM
- MIC with salts (Fusarium oxysporum L; [7]): > 32 µM
- MIC without salts (Fusarium oxysporum L; without salts): 2 to 4 µM
- MIC with salts (Botrytis petuniae; [7]): > 32 µM
- MIC without salts (Botrytis petuniae; without salts): 4 to 8 µM
- MIC with salts (Alternaria dauci; [7]): 16 to 32 µM
- MIC without salts (Alternaria dauci; without salts): 4.1 to 8.2 µM
- lytic effect on red blood cells (bovine red blood cells): no lytic effect
- lytic effect on red blood cells (porcine red blood cells): no lytic effect
- MIC (Bacillus subtilis): 1.5 to 3.0 µM
- MIC (Escherichia coli D22): > 30 µM
- MIC (Escherichia coli D31): 3 to 6 µM
- MIC (Micrococcus luteus; Micrococcus luteus, Gram +, 24 hours at 25° C., absorbance at 600 nm): 0.6 to 1.5 µM
- antibacterial activity of synthetic molecule compared with native molecule (Micrococcus luteus; bacterium Micrococcus liteus, synthetic (FMOC, renatured) vs native): same antibacterial activity as the native molecule
- MIC (Aerococcus viridans): 0.3 to 0.6 µM
- MIC ([6]; Clavibacter michi ganensis, Gram +, Table 1, 24 hours at 25° C., absorbance at 600 nm): 6 to 15 µM
- MIC ([6]; Clavibacter michiganensis, Table 2, phytopathogenic bacteria, same protocol): 6 to 15 µM
- MIC (Staphylococcus aureus): 15 to 30 µM
- MIC (Salmonella typhimurium): 3 to 6 µM

Source: patent publication US6127336A, “Antibacterial and antifungal peptide” (priority 1996, dated 2000)
